Assay results published in patent publication US20150353495A1 (PORTOLA PHARMACEUTICALS, INC., priority 2010, published 2015).

What was measured:
Assay type in all cases: biochemical
[1] = target: T1, full length active recombinant SYK enzyme (Homo sapiens, UniProt P43405); test: Inhibition of Syk tyrosine phosphorylation activity (LANCE TR-FRET)
T1 construct: full length active recombinant SYK enzyme (Millipore, Calif.); purchased Millipore
Source text: This example illustrates methods for evaluating the compounds of the invention, along with results obtained for such assays. The in vitro and in vivo human Syk activities of the inventive compounds can be determined by various procedures known in the art, such as a test for their ability to inhibit the activity of human plasma Syk. […] The IC50 value is the concentration (in nM) of the compound required to provide 50% inhibition of human Syk proteolytic activity.
An in vitro assay for detecting and measuring inhibition activity against Syk is as follows:
Inhibition of Syk Tyrosine Phosphorylation Activity
Potency of candidate molecules for inhibiting Syk tyrosine phosphorylation activity is assessed by measuring the ability of a test compound to inhibit Syk-mediated tyrosine phosphorylation of a Syk-specific substrate.
SYK tyrosine phosphorylation activity is measured using the LANCE™ Technology developed by Perkin Elmer Life and Analytical Sciences (Boston, Mass.). LANCE™ refers to homogeneous time resolved fluorometry applications using techniques such as time-resolved fluorescence resonance energy transfer assay (TR-FRET) (see generally for procedures in Perkin Elmer Application Note-How to Optimize a Tyrosine Kinase Assay Using Time Resolved Fluorescence-Based LANCE Detection, wwww.perkinelmer.com/lifesciences). The assay principle involves detection of a phosphorylated substrate using energy transfer from a phosphospecific europium-labeled antibody to streptavidin-allophycocyanin as an acceptor.
To test the ability of candidate molecules to inhibit SYK tyrosine phosphorylation activity, molecules are reconstituted in 30% DMSO and serially diluted 1:3 with the final dilution containing DMSO in the absence of the candidate molecule. The final DMSO concentration in the assay is 3%. Kinase assays are performed as a two part reaction. The first reaction is a kinase reaction and which comprises of a candidate molecule, full length active recombinant SYK enzyme (Millipore, Calif.) and biotin-labeled SYK-specific substrate biotin-[…]-OH. The second reaction involves termination of the kinase reaction and the simultaneous addition of the detection reagents-europium-labeled anti-phosphotyrosine reagent (Eu-W1024-PY100, Perkin Elmer, Boston, Mass.) and Streptavidin-Allophycocyanin detection reagent (SA-APC, Prozyme, CA). The kinase reaction is performed in a black U-bottom 96-well microtitre plate. The final reaction volume is 50 μL and contains a final concentration of 1 nM active SYK enzyme, 550 nM SYK-substrate, and 100 nM ATP diluted in a buffer containing 50 mM Tris pH 7.5, 5 mM MgCl2, and 1 mM DTT. The reaction is allowed to proceed for 1 hour at room temperature. The quench buffer contains 100 mM Tris pH 7.5, 300 mM NaCl2, 20 mM EDTA, 0.02% Brij35, and 0.5% BSA. The detection reagents are added to the reaction mixture at the following dilutions-1:500 for Eu-W1024-PY100 and 1:250 for SA-APC. The kinase reaction is terminated by the addition of 50 μL quench buffer containing the detection reagents. […] Detection of the phosphorlated substrate in the absence and presence of inhibitors is measured in the TR-FRET instrument, Analyst HT (Molecular Probes, Sunnyvale, Calif.) and the condition for measurements are set up using CriterionHost Release 2.0 (Molecular Probes, Sunnyvale, Calif.). […] Inhibition of SYK-tyrosine kinase activity is calculated as the maximum response observed in the presence of inhibitor, compared to that in the absence of inhibitor. […]

JAK2 = target: T2, JAK2 (Homo sapiens, UniProt O60674); test: Z'-LYTE kinase assay JAK2
T2 construct: 5 μl of catalytic domain recombinant Kinase enzyme+Tyr peptide substrate (Invitrogen, CA); purchased Invitrogen
Summary of the method: (§1)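 Catalytic-domain recombinant kinase was incubated with Tyr6 FRET peptide, ATP and compound (1% DMSO final) for 1 h at room temperature. Protease development followed for 1 h, cleaving only non-phosphorylated peptide. Inhibition of phosphorylation was read as coumarin/fluorescein FRET fluorescence.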

JAK3 = target: T3, JAK3 (Homo sapiens, UniProt P52333); test: Z'-LYTE kinase assay JAK3
T3 construct: 5 μl of catalytic domain recombinant Kinase enzyme+Tyr peptide substrate (Invitrogen, CA); purchased Invitrogen
Summary of the method: as §1

T3 sequence (P52333 822-1111 limits assumed): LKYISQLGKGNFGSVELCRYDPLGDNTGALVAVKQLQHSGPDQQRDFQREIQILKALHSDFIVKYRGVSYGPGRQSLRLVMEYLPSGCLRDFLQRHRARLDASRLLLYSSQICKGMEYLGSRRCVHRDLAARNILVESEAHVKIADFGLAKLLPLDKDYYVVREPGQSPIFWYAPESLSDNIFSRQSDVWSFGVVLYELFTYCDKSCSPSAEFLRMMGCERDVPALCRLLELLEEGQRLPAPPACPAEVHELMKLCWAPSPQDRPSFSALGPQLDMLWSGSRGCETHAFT
T2 sequence (O60674 849-1124 limits assumed): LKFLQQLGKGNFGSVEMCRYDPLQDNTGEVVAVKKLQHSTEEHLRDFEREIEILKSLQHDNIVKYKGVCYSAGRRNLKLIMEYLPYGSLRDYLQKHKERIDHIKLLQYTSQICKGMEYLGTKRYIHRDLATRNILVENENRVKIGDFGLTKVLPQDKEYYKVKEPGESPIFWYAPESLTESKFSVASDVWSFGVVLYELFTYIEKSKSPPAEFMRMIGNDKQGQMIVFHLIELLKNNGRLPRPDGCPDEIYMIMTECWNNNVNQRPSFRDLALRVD

Row | IC50 [1] [nM] | IC50 (JAK2) [nM] | IC50 (JAK3) [nM] | Compound
1 | > 1000 | 100 to 1000 | 10 to 100 | CC(=O)N1CCN(c2ccc(Nc3cc(NC4CC4)c(C(N)=O)cn3)cc2)CC1 [Example 2]
2 | > 1000 | 10 to 100 | 1 to 10 | CC(=O)N1CCN(c2ccc(Nc3cc(NCc4cccc(F)c4)c(C(N)=O)cn3)cc2)CC1 [Example 229]
